According to patent US9833497B2, “Human originated EGF domain proteins and use of the same” (CHENGDU SOURCEBIO LIMITED-LIABILITY COMPANY, priority 2013, dated 2017):

Key:
Format in all cases: cell-based
Klebsiella pneumonia = test: MIC against Gram-negative bacteria: Klebsiella pneumonia; conditions: 96-well plate, 5×10^5 CFU/mL, 37° C., 10 h
Method in brief: (§1)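 Bacteria grown in LB at 37° C with shaking to McFarland 0.5, pelleted and resuspended in fresh LB, then seeded at 5×10^5 CFU/mL per well. Purified recombinant human EGF domain proteins were two-fold serially diluted in triplicate and plates shaken at 37° C, 175 rpm. MIC is the lowest protein concentration with no bacterial growth.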

Proteus vulgaris = test: MIC against Gram-negative bacteria: Proteus vulgaris; conditions: 96-well plate, 5×10^5 CFU/mL, 37° C., 10 h
Method in brief: as §1

Serratia marcescens = test: MIC against Gram-negative bacteria: Serratia marcescens; conditions: 96-well plate, 5×10^5 CFU/mL, 37° C., 10 h
Method in brief: as §1

E. coli BL21 = test: MIC against Gram-negative bacteria: E. coli BL21; conditions: 96-well plate, 5×10^5 CFU/mL, 37° C., 10 h
Method in brief: as §1

Citrobacter diversus = test: MIC against Gram-negative bacteria: Citrobacter diversus; conditions: 96-well plate, 5×10^5 CFU/mL, 37° C., 10 h
Method in brief: as §1

Pseudomonas aeruginosa = test: MIC against Gram-negative bacteria: Pseudomonas aeruginosa; conditions: 96-well plate, 5×10^5 CFU/mL, 37° C., 10 h
Method in brief: as §1

Moraxella catarrhalis = test: MIC against Gram-negative bacteria: Moraxella catarrhalis; conditions: 96-well plate, 5×10^5 CFU/mL, 37° C., 10 h
Method in brief: as §1

Enterobacter cloacae = test: MIC against Gram-negative bacteria: Enterobacter cloacae; conditions: 96-well plate, 5×10^5 CFU/mL, 37° C., 10 h
Method in brief: as §1

Aeromonas hydrophila = test: MIC against Gram-negative bacteria: Aeromonas hydrophila; conditions: 96-well plate, 5×10^5 CFU/mL, 37° C., 10 h
Method in brief: as §1

E. coli DH5α = test: Antibacterial activity: MIC and growth curve against E. coli DH5α in 96-well plate; conditions: minimal inhibitory concentration against E. coli DH5α; 96-well plate, 5×10^5 CFU/mL, 37° C., judged after 8 h
Method in brief: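 Log-phase DH5α (OD600 about 0.5, 37° C, 185 rpm in LB) was pelleted, resuspended in fresh LB and seeded at 5×10^5 CFU/mL with recombinant protein at 50, 25 and 12.5 μg/mL (two-fold series), in triplicate. Plates were shaken at 175 rpm, 37° C, and OD600 was read every 30 min. MIC was the lowest concentration with no growth.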

Proteus mirabilis = test: MIC against Gram-negative bacteria: Proteus mirabilis; conditions: 96-well plate, 5×10^5 CFU/mL, 37° C., 10 h
Method in brief: as §1

Substance	MIC against K. pneumonia (Klebsiella pneumonia) [µg/mL]	MIC against P. vulgaris (Proteus vulgaris) [µg/mL]	MIC against S. marcescens (Serratia marcescens) [µg/mL]	MIC against E. coli BL21 (E. coli BL21) [µg/mL]	MIC against C. diversus (Citrobacter diversus) [µg/mL]	MIC against P. aeruginosa (Pseudomonas aeruginosa) [µg/mL]	MIC against M. catarrhalis (Moraxella catarrhalis) [µg/mL]	MIC against E. cloacae (Enterobacter cloacae) [µg/mL]	MIC against A. hydrophila (Aeromonas hydrophila) [µg/mL]	MIC (E. coli DH5α) [µg/mL]	MIC against P. mirabilis (Proteus mirabilis) [µg/mL]
PRT474 (QADPCQPNPCEHGGDCLVHGSTFTCSCLAPFSGNKCQ; listed as Homo sapiens)	25	50	12.5	25	12.5	25	50	25	50	12.5	12.5
PRT475 (VQNTCKDNPCGRGQCLITQSPPYYRCVCKHPYTGPSCS; listed as Homo sapiens)	25	12.5	50	12.5	25	50	12.5	25	25	50	50
PRT476 (VVPVCRPNPCQNGATCSRHKRRSKFTCACPDQFKGKFCE; listed as Homo sapiens)	12.5	12.5	50	12.5	50	50	25	50	12.5	12.5	25
PRT478 (ATQYCSRAQCHGHGRCVRRNPSASTFLHLSTNSFRLVPGHAPGEPQLRPVGELSWADIDH; listed as Homo sapiens)	25	25	12.5	25	100	12.5	25	50	25	50	50
PRT479 (AAMACSHQRCHGHGRCARRDPGQMEAFLHLWPDGSLGDWKSFSCHCYWGWAGPTCQ; listed as Homo sapiens)	12.5	50	25	50	25	25	12.5	25	50	25	25
PRT481 (EITACSSSPCFHDGTCVLDKAGSYKCACLAGYTGQRCE; listed as Homo sapiens)	50	50	12.5	12.5	12.5	25	50	12.5	50	25	12.5
PRT482 (ECIDDETEEICGGHGKCYCGNCYCKAGWHGDKCE; listed as Homo sapiens)	12.5	50	25	12.5	25	50	12.5	25	50	50	25
